From patent publication US20240041840A1 (Areteia Therapeutics, Inc., priority 2020, published 2024)
Where two headings read alike, the source gives them in different places.

What was measured:
[1] = system: subjects with eosinophilic asthma
Procedure: Pulmonary function is measured by performing a spirometry, which measures forced expiratory volume in is (FEV1), the volume of air moved in the first second of exhalation, this is a well-accepted measure of asthma. Forced vital capacity (FVC) is the total volume of air exhaled during the entire forced expiratory volume (FEV) test. The FEV1/FVC ratio is a calculated measure that may provide a more specific measure of bronchoconstriction, independent of processes such as air trapping. Pulmonary function testing can be tested pre-bronchodilator (after waiting a sufficient time so that all bronchodilator medications have cleared) or post-bronchodilator, typically 15-30 minutes after inhaling a short-acting bronchodilator, such as albuterol. Bronchodilator reversibility (BDR) is calculated and assessed by analyzing FEV1 pre- and post-bronchodilator, and calculating the change both as absolute (ml) and percentage change.
Although some of the responsible factors are modifiable, such as suboptimal medication adherence and poor inhaler technique, others reflect intrinsic deficiencies in available asthma pharmacotherapy. This deficiency is particularly apparent in patients prone to severe asthma exacerbations. […] However, all of the biologics require parenteral administration. […] A 4-arm dose ranging placebo-controlled design was chosen to provide a range of drug exposure. Blood eosinophil lowering was chosen as the primary endpoint to facilitate identification of the lowest effective dose for use in future clinical development. The Primary Assessment Period of 12 weeks was chosen to provide adequate time to observe both pharmacodynamic endpoints, such as eosinophil lowering, as well as the clinical endpoints that may improve as a consequence of eosinophil lowering (FEV1, FVC, ACQ-6, ACQ-7, and AQLQ). The 12-week Eosinophil Recovery Period was chosen based on expected recovery to near baseline count in most subjects.

[2] = system: subjects with eosinophilic asthma; remark: listed apart in the source
Description: Evaluation of Safety: Physical examination, vital signs (systolic and diastolic blood pressure, respiratory rate, heart rate, and temperature), body weight, 12-lead ECG, clinical laboratory evaluations (hematology, blood chemistry, and urinalysis), pregnancy testing, adverse event monitoring, and concomitant medication were monitored throughout the study. […] A neutropenia case report form was utilized during the study to capture detailed clinical information concurrent with any laboratory events of neutropenia.

[3] = system: blood eosinophils
[4] = 75 mg/day, Week 12, efficacy population N = 22
[5] = 150 mg/day, Week 12, efficacy population N = 24
[6] = 300 mg/day, Week 12, efficacy population N = 28

In the case of `CCCN[C@@H]1CCc2nc(N)sc2C1` [dexpramipexole, (6R)-2-amino-4,5,6,7-tetrahydro-6-(propylamino) benzothiazole], the “Pre-Bronchodilator FVC, % change from Baseline, mean” value (from here on “Pre-Bronchodilator FVC, % change”) ([1]; 75 mg/day, Week 4) is reported as 2.82%, the “Pre-bronchodilator FVC change from Baseline LSM” value (“Pre-bronchodilator FVC change” below) ([1]; 75 mg/day, Week 4) is reported as 0.0925 and the “Pre-bronchodilator FVC difference versus Placebo LSM” value ([1]; 75 mg/day, Week 4) is reported as 0.0785. The “Pre-Bronchodilator FVC, % change” value ([1]; 75 mg/day, Week 8) was 7.17%, the “Pre-bronchodilator FVC change” value ([1]; 75 mg/day, Week 8) was 0.155 and the “Pre-bronchodilator FVC difference versus Placebo LSM” value ([1]; 75 mg/day, Week 8) was 0.149. The “Pre-Bronchodilator FVC, % change” value ([1]; 75 mg/day, Week 12) was 7.93%, the “Pre-bronchodilator FVC change” value ([1]; 75 mg/day, Week 12) was 0.181 and the “Pre-bronchodilator FVC difference versus Placebo LSM” value ([1]; 75 mg/day, Week 12) was 0.140. The “Pre-Bronchodilator FVC, % change” value ([1]; 75 mg/day, Week 16 or Week 18) was 13.4%, the “Pre-bronchodilator FVC change” value ([1]; 75 mg/day, Week 16 or Week 18) was 0.297 and the “Pre-bronchodilator FVC difference versus Placebo LSM” value ([1]; 75 mg/day, Week 16 or Week 18) was 0.329. The “Pre-Bronchodilator FVC, % change” value ([1]; 150 mg/day, Week 4) was 3.54%, the “Pre-bronchodilator FVC change” value ([1]; 150 mg/day, Week 4) was 0.122 and the “Pre-bronchodilator FVC difference versus Placebo LSM” value ([1]; 150 mg/day, Week 4) was 0.108. For the same molecule, the “Pre-Bronchodilator FVC, % change” value ([1]; 150 mg/day, Week 8) was 5.28%, the “Pre-bronchodilator FVC change” value ([1]; 150 mg/day, Week 8) was 0.152 and the “Pre-bronchodilator FVC difference versus Placebo LSM” value ([1]; 150 mg/day, Week 8) was 0.146. The “Pre-Bronchodilator FVC, % change” value ([1]; 150 mg/day, Week 12) was 3.63%, the “Pre-bronchodilator FVC change” value ([1]; 150 mg/day, Week 12) was 0.0714 and the “Pre-bronchodilator FVC difference versus Placebo LSM” value ([1]; 150 mg/day, Week 12) was 0.0304. For the same molecule, the “Pre-Bronchodilator FVC, % change” value ([1]; 150 mg/day, Week 16 or Week 18) was 7.33%, the “Pre-bronchodilator FVC change” value ([1]; 150 mg/day, Week 16 or Week 18) was 0.143 and the “Pre-bronchodilator FVC difference versus Placebo LSM” value ([1]; 150 mg/day, Week 16 or Week 18) was 0.175. The “Pre-Bronchodilator FVC, % change” value ([1]; 300 mg/day, Week 4) was 1.91%, the “Pre-bronchodilator FVC change” value ([1]; 300 mg/day, Week 4) was 0.0983 and the “Pre-bronchodilator FVC difference versus Placebo LSM” value ([1]; 300 mg/day, Week 4) was 0.0844. The “Pre-Bronchodilator FVC, % change” value ([1]; 300 mg/day, Week 8) was 11.5%, the “Pre-bronchodilator FVC change” value ([1]; 300 mg/day, Week 8) was 0.322 and the “Pre-bronchodilator FVC difference versus Placebo LSM” value ([1]; 300 mg/day, Week 8) was 0.316. For the same molecule, the “Pre-Bronchodilator FVC, % change” value ([1]; 300 mg/day, Week 12) was 8.95%, the “Pre-bronchodilator FVC change” value ([1]; 300 mg/day, Week 12) was 0.257 and the “Pre-bronchodilator FVC difference versus Placebo LSM” value ([1]; 300 mg/day, Week 12) was 0.216. For the same molecule, the “Pre-Bronchodilator FVC, % change” value ([1]; 300 mg/day, Week 16 or Week 18) was 9.11%, the “Pre-bronchodilator FVC change” value ([1]; 300 mg/day, Week 16 or Week 18) was 0.267 and the “Pre-bronchodilator FVC difference versus Placebo LSM” value ([1]; 300 mg/day, Week 16 or Week 18) was 0.299. For the same molecule, the Safety and tolerability ([2]; 300 mg/day and 150 mg/day doses, KNS-760704-AS201 trial) was “Lastly, the excellent safety and tolerability of the above doses in the KNS-760704-AS201 trial and in previous”, the Tolerability ([2]; across all dose levels (75, 150, 300 mg/day, 12 weeks)) was “well-tolerated” and the “Subjects with AEC ≤50 cells/pL, %” value [3, 4] was “(22.7%)”. For the same molecule, the “Subjects with AEC ≥50% reduction from Baseline to Week 12, %” value (from here on “Subjects with AEC ≥50% reduction”) [3, 4] was “(50.07%)”, the “Subjects with AEC ≤50 cells/pL, %” value [3, 5] was “(37.5%)” and the “Subjects with AEC ≥50% reduction” value [3, 5] was “(62.5%)”. The “Subjects with AEC ≤50 cells/pL, %” value [3, 6] was “(42.9%)”, the “Subjects with AEC ≥50% reduction” value [3, 6] was “(57.1%)” and the “Reduction in AEC” value ([3]; Week 12 compared with baseline, up to 300 mg/day) was no more than 80%. The “Dexpramipexole treated subjects with a greater than or equal to 50% reduction in AEC” value ([3]; all dose groups) was “approximately 60%” and the “Number of hematologic responders compared with placebo” value ([3]; blood eosinophil count of ≤50 cells/μL at week 12, dose-dependent) was “significantly increased”.
